# In publication PMC3906678 (Clinical cancer research : an official journal of the …, 2012):
# Where two headings read alike, the source gives them in different places.
# Assays:
# [1] = human, in vivo
# metastatic melanoma [2] = conditions: cited from earlier work
# P-AKT Ser473 [3] = conditions: single-agent, matching biopsies, head and neck cancer patients; cited from earlier work
# metastatic melanoma [4] = conditions: temsirolimus; cited from earlier work
# P-S6 = conditions: biopsies from treated patients; cited from earlier work
# P-AKT Ser473 [5] = conditions: biopsies from treated patients; cited from earlier work
compound,measurement,setting,value
CNC(=O)c1cc(Oc2ccc(NC(=O)Nc3ccc(Cl)c(C(F)(F)F)c3)cc2)ccn1 [Sorafenib],Mean Cmax and Cavg at steady-state on Day 15 compared to Day 1,[1],2-4 fold
same,Clinical response rate,"metastatic melanoma [2]; melanoma patients, sorafenib",3%
same,Patients who achieved a clinical response,"metastatic melanoma [2]; metastatic melanoma patients, sorafenib monotherapy",one of 37
CO[C@H]1C[C@@H]2CC[C@@H](C)[C@@](O)(O2)C(=O)C(=O)N2CCCC[C@H]2C(=O)O[C@H]([C@H](C)C[C@@H]2CC[C@@H](OC(=O)C(C)(CO)CO)[C@H](OC)C2)CC(=O)[C@H](C)/C=C(\C)[C@@H](O)[C@@H](OC)C(=O)[C@H](C)C[C@H](C)/C=C/C=C/C=C/1C [Temsirolimus],Change in P-AKT Ser473,P-AKT Ser473 [3],lack of increase
same,Patients who achieved a clinical response,metastatic melanoma [4],1 of 33
CO[C@H]1C[C@@H]2CC[C@@H](C)[C@@](O)(O2)C(=O)C(=O)N2CCCC[C@H]2C(=O)O[C@H]([C@H](C)C[C@@H]2CC[C@@H](OCCO)[C@H](OC)C2)CC(=O)[C@H](C)/C=C(\C)[C@@H](O)[C@@H](OC)C(=O)[C@H](C)C[C@H](C)/C=C/C=C/C=C/1C [everolimus],Change in P-S6,P-S6,decrease
same,Change in P-AKT Ser473,P-AKT Ser473 [5],increase
